{
  "source": "patent US20040152126A1",
  "about": "“Methods of screening for cox-2 inhibitors” (priority 1999, published 2004)",
  "key": {"cox-2 promoter": {"system": "cox-2 promoter", "assay": "Luciferase activity in stable Jurkat-1906LUC clones (Jurkat-C3-, F9-, C7-1906LUC)", "method": "The transfection was carried out by means of the technique of electroporation in cuvettes of 0.4 cm (BioRad) with 15×10^6 cells in 0.5 ml of complete medium [RMPI medium supplemented with 10% of foetal serum, L-glutamine 2mM and a mixture of antibiotics] […] After this period, the cells were electroporated in a Gene Pulser II (BioRad) apparatus at 1.500 μFaradays of capacitance and a current of 280 V. Next, the cells were incubated over ice for 10 minutes before adding 10 ml of complete medium. The cells were cultured in this medium in 75 cm^2 culture flasks (Nunc) for 48 hours in a cell incubator at 37° C. with a humidity of 95% and 5% of Co2. At this time, the medium was changed for complete medium with no antibiotics to which hygromycin (Boehringer Mannheim) was added at a concentration of 200 μg/ml. The cells were cultured in this medium for 30 days with successive changes of medium. […] For this, 1×10^6 cells were lysed in 50 μl of lysis buffer (Promega) and with the extracts obtained, the luciferase activity was determined using the reagents contained in the kit of the “Luciferase Assay System” [Promega].\nThese clones were grown until obtaining at least 1×10^6 cells with which measurement of the luciferase activity could be performed as described earlier. […]"}, "[1]": {"system": "endogenous cox-2 gene (mRNA of cox-2)", "assay": "RT-PCR analysis of the expression of cox-2 mRNA in Jurkat cells", "assay_type": "cell-based, human", "conditions": "PMA 10 ng/ml alone or with calcium ionophore A23187 1 μM, FIG. 3(A)", "experimental": "In order to study the regulation of the expression of the endogenous cox-2 gene in the Jurkat cell line, the analysis of the expression of its mRNA was performed by experiments with RT-PCR. At the same time, in order to validate the prom2-1906-LUC construct and to check that the regulation of the cloned promoter is as expected, experiments were carried out of transitory transfection of the prom2-1906-LUC construct using the Jurkat cell line. In both experiments, the cells were treated with compounds that stimulate and inhibit the induction of the promoter of cox-2.\nTreatment with activator compounds were carried out using the phorbol ester PMA (Phorbol 12-Myristate 13-Acetate) (10 ng/ml) (Sigma) and the combination of PMA and Calcium ionophore A23187 (1 μM) (Sigma), hereinafter PMA+Ion.\nTreatment with drugs that inhibit the induction by PMA+Ion were carried out with cyclosporin A (CsA) (100 ng/ml) or the synthetic glucocorticoide Dexamethasone (Dex) (1 μM) (Sigma).\nThe results obtained from the analysis by RT-PCR of the expression of mRNA of cox-2 in Jurkat cells are presented in FIG. 3, where the following can be observed:\nAs a control in both cases, the result obtained for the non-inducible mRNAs of the cox-1 isoform and for the glycerol aldehyde phosphate dehydrogenase (GAPDH) are shown."}},
  "data": [
    {"smiles": "CCCCCCCCCCCCCC(=O)O[C@@H]1[C@@H](C)[C@@]2(O)[C@@H](C=C(CO)C[C@]3(O)C(=O)C(C)=C[C@@H]23)[C@@H]2C(C)(C)[C@]12OC(C)=O", "note": "[PMA, Phorbol 12-Myristate 13-Acetate]", "values": [
      {"measurement": "increase of the basal values of luciferase activity", "setting": "cox-2 promoter; three stable clones, treatment of 6 hours, FIG. 7", "value": "3 to 6", "unit": "times"},
      {"measurement": "expression of the mRNA of cox-2", "setting": "[1]", "value": "slight increase"}
    ]},
    {"smiles": "Oc1ccc(C=Cc2cc(O)cc(O)c2)cc1", "note": "[Resveratrol]", "values": [
      {"measurement": "inhibition of the stimulation obtained with PMA+Ion (luciferase activity)", "setting": "cox-2 promoter; stable Jurkat clones, 1 hour pre-treatment with compound, then PMA+Ion for 5 hours, FIGS. 8-10", "value": "produces an inhibition of the stimulation obtained with PMA+Ion"}
    ]}
  ]
}
